# Test system: Hela cells RCB 0007
# Details: human
compound,measurement,value
"O=C(/C=C/c1ccccc1)N[C@@H](c1ccccc1)[C@@H](OC(=O)c1ccccc1)C(=O)NC1CCCCC1 [Compound 4, (2R,3S)-Cyclohexyl 3-(N-cinnamoyl)amino-3-phenyl-2-benzoyloxypropanamide]",cell death ratio,less than 10%
